According to US9598463B2, “Mucin hypersecretion inhibitors and methods of use” (BIOMARCK PHARMACEUTICALS, LTD., priority 2005, dated 2017):
Like-named read-outs stand apart in the source and are kept apart here. Marks after values point to notes of the source that are not given here.

How the values were obtained:
[1] = test system: methacholine-induced mucin hypersecretion; experiment: Methacholine-induced mucin hypersecretion in ovalbumin-sensitized mouse model of asthma, BAL mucin ELISA (Balb/C mice); assay type: in vivo; settings: for Mucin Secretion % control: Table II, peptides at 100 μM, 50 μL intratracheal 15 min before methacholine; for Mucin Secretion % of control: Table IV
Procedure, shortened: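 BP2 or Balb/C mice immunized s.c. twice weekly with 1 μg ovalbumin, aerosol ovalbumin challenge after 14 days, then aerosolized methacholine 72 h later. Anti-MUC5AC ELISA on cell-free BAL, minus non-immune antibody signal, normalized to Bradford protein; 6 mice per group.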

[2] = test system: methacholine-induced mucin hypersecretion; experiment: Duration of action of test peptides in a murine model of asthma; assay type: in vivo; settings: Balb/C mice
From the text: Experiments were designed to test whether or not the MANS peptide and other test peptides related thereto inhibit hypersecretion of mucin in murine airway in vivo. The ovalbumin-sensitized mouse model of allergic inflammation and asthma used in these studies was as described by Singer et al. (2004), supra. As a negative control, a control peptide containing an N-terminal myristoyl group and the same amino acids as MANS peptide but arranged in random order (i.e., the random N-terminal sequence, RNS, myristoyl-peptide 232) was tested alongside the proposed active peptides. BP2 mice, aged 6-8 wks, were immunized subcutaneously twice at weekly intervals with 1 μg of ovalbumin. After 14 days of sensitization, the animals were exposed to aerosolized ovalbumin, which causes a pronounced goblet cell hyperplasia after 72 hours. At the 72 hr time point, the secretagogue, methacholine ([…]) was delivered using a Buxco system nebulizer providing a fine aerosol for 90 seconds. Fifteen min prior to the secretagogue challenge, 50 μL of the test peptide, at 3 different concentrations (10 μM, 100 μM, or 140 μM), was administered by intratracheal route. The RNS peptide was tested at the highest dose level only (50 μL of 140 μM solution). […] Each experiment was carried out in 6 mice per point, and each set of experiments was repeated 3 times. To test strain-to-strain variations, the above experiment was repeated in Balb/C mice under similar protocol. Both stimulated and unstimulated mucin secretion, in mice treated with […] sodium acetate (data not shown), were identical to saline control. Following the methacholine challenge, the animals were sacrificed and bronchoalveolar lavage (BAL) performed on 6 animals per group for analysis of secreted mucin.
Mice were sacrificed by cervical dislocation, followed by rapid exposure of the trachea and insertion of a cannula through a small incision. Bronchoalveolar lavage (BAL) fluid was collected with 0.5 ml followed by 3×1 ml PBS containing PMSF (5 mM), EDTA (5 mM), and DTT (5 mM). BAL fluid was separated into cell-free and cell fractions via brief centrifugation prior to any analyses being performed. The cell-free supernatants were analyzed for the presence of mucin via an ELISA method using anti-mucin antibodies shown to react with mouse mucin. Specifically, a mouse anti-MUC5AC antibody that recognizes the carbohydrate portion of secreted mucin was used in these assays. Data generated from each BAL sample were normalized to total protein as determined by Bradford assay. Mucin content was expressed as the value obtained with the anti-mucin antibody minus that obtained with the non-immune control antibody. All ELISA data were statistically examined using a one-way ANOVA.
Experiments were designed to determine the duration of action of test peptides in a murine model of asthma. As described in Method 1A, Balb/C mice were immunized with ovalbumin. After 14 days, the animals were challenged with aerosolized ovalbumin. After 72 hours the secretagogue, methacholine was delivered by aerosolization. The test peptides ([…] of 100 µM solution) were administered by intratracheal route 30 min, 60 min, or 120 min prior to methacholine challenge. The animals were sacrificed and BAL performed for analysis of secreted mucin The results of this experiment are given in Table VI.

[3] = Qualitative solubility of test peptides in 0.5 N saline; assay type: physicochemical; settings: pH 6.5, 20° C. (table title)
Procedure, shortened: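 Weighed peptide (1 to 5 mg) titrated with 25 μL aliquots of 0.5 N saline, pH 6.5, at 25° C until dissolution judged visually. Solubility calculated from volume needed; complete dissolution in first aliquot reported as greater than, non-dissolution as less than, the calculated value.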

[4] = Stability of test peptides in human plasma (LC/MS/MS, first order half-life); assay type: in vitro ADME; settings: human plasma, 37° C.
Method: Various test peptides in human plasma, human BALF, and CF patient mucus were analyzed to determine the susceptability of the test peptide to proteolysis in the biological fluids. […] The samples were analyzed either on the same day as received or stored at −20° C. and analyzed within the following two days.
Fresh human blood samples were collected in citrate buffered vacuutrainers (in absence of EDTA or heparin). Red blood cells (RBC) were removed by centrifugation of the blood at 4000×g for 10 min at 4° C. Plasma aliquots (0.9 mL) were then spiked with 0.1 mL of 0.5 mg/mL solution of the test peptide in 75 mM sodium acetate buffer at pH 7.0 and incubated in a water bath maintained at 37° C. Duplicate aliquots of 10 μL, were withdrawn at 5, 15, 30, 60, and 180 minutes intervals and immediately “quenched” with 990 μL of a solution consisting of 50% acetonitrile+50% water containing 0.2% formic acid. The samples were then subjected to liquid chromatography-mass spectrometry (LCMS) analysis.
All samples were analyzed using LC/MS/MS (MDS/SCIEX, API 4000 Model). Chromatography was performed using a Phenomenex Luna C18 column, while mass spectrometry was performed using positive ion electrospray ionization.
Calibration standards were analyzed by LCMS at concentrations of 0.100 μg/mL, 1.00 μg/mL, 10.0 μg/mL, and 100 μg/mL for each peptide, with the exception of the calibration standards for peptides myr-PEPTIDE 106, PEPTIDE 106, PEPTIDE 106-NH2, PEPTIDE 106, and cyclic peptide, cyc-PEPTIDE 106, in human mucus, which were analyzed at concentrations of 0.100 μg/mL, 1.00 μg/mL, 10.0 μg/mL, and 75 μg/mL. Standards were prepared in 1% human BALF, plasma, or mucus in 50/50 water/acetonitrile mixture containing 0.2% formic acid. The instrument response values for each set of standards were fit using a 1/(concentration)^2 linear least-squares line. Sample concentrations were calculated using the slope and intercept of this line. Concentrations outside of the calibration range were determined by extrapolating the calibration curve. […]
For the analysis of peptide concentration in plasma, duplicate calibration standards were analyzed at a concentration of 25 μg/mL and 50 μg/mL for each peptide. The instrument response values for each set of standards were fit through an intercept of 0 using an unweighted, linear least-squares line. Sample concentrations were calculated using the slope and intercept of this line. Concentrations outside of the calibration range were determined by extrapolating the calibration curve.
Watson fits the log transformed data with a least-squares line to determine parameters such as Cmax (maximum concentration), intercept, rate constant, slope, and T1/2 (half-life). The resulting kinetic parameters were based on the linear fit, not the actual concentration values.
Time-zero calibration standards in solution were not included as part of the kinetic profiles.

[5] = peptide intratracheal 30 min prior to methacholine challenge
[6] = peptide intratracheal 60 min prior to methacholine challenge
[7] = peptide intratracheal 120 min prior to methacholine challenge
[8] = 2nd experiment, read-out: Plasma t1/2 (2nd exp.) (converted)

| Substance | Mucin Secretion % control [1] | Duration of action, mucin secretion (% of Control) [2, 5] | Duration of action, mucin secretion (% of Control) [2, 6] | Duration of action, mucin secretion (% of Control) [2, 7] | solubility [3] | half-life [4, 8] | Mucin Secretion % of control ([1]; peptide 10 μM) | Mucin Secretion % of control ([1]; peptide 100 μM) | half-life ([4]; 1st experiment, read-out: Plasma t1/2 (1st exp.) (converted)) |
| --- | --- | --- | --- | --- | --- | --- | --- | --- | --- |
| Ac-GAQFSKTAAK-OH [Ac-peptide 106] | 21.5 % control | 21 % of Control | 72 % of Control | 70 % of Control | > 100 mg/mL | 1.8 min | – | – | – |
| H-GAQFSKTAAK-OH [peptide 106, GAQFSKTAAK] | 33.8 % control | 23 % of Control | 48 % of Control | 57 % of Control | > 70 mg/mL | 9 min | 64* % of control | 40** % of control | 16.8 min |
